Our source for the IC50 values is BindingDB's records for doi:10.1016/j.bioorg.2015.05.010 (Universiti Teknologi Mara (Uitm), 2015).

The test addresses T1, Beta-glucuronidase (Bos taurus, UniProt A3KMY8).
T1 sequence (A3KMY8 whole entry): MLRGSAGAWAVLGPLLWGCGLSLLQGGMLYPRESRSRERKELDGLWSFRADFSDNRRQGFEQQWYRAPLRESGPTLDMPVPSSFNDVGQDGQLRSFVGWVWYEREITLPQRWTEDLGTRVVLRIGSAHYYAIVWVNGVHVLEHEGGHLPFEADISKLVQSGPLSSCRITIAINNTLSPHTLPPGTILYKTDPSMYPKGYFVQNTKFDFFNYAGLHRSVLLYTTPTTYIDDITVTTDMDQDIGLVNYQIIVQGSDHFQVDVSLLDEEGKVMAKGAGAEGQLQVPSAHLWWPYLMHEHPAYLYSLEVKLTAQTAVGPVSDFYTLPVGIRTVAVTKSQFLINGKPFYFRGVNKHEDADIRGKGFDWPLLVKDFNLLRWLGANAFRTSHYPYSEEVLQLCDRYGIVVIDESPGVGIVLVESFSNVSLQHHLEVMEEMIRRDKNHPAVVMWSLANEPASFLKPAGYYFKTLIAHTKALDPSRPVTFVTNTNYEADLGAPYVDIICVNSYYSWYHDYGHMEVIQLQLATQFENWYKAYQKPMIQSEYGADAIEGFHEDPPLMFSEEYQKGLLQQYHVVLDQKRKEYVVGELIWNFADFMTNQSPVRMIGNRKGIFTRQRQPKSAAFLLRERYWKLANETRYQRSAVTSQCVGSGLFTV
Nature of the test: Beta-glucuronidase Inhibition Assay. The procedure:
The total reaction volume was 250 µL. […] The reaction mixture contained 185 µL of 0.1 M acetate buffer, 5 µL of test compound solution, 10 µL of enzyme solution was incubated at 37 °C for 30 min. […] All assays were run in triplicate.
`COc1ccc(O)c(-c2nc3c(Cl)cc(Cl)cc3[nH]2)c1` [2-(4,6-dichloro-1H-benzo[d]imidazol-2-yl)-4-methoxyphenol (8)] displayed an IC50 of 15.5 µM. For `Oc1ccc(O)c(-c2nc3c(Cl)cc(Cl)cc3[nH]2)c1` [2-(4,6-dichloro-1H-benzo[d]imidazol-2-yl)benzene-1,4-diol (7)] the value was 11.5 µM; for `Oc1ccccc1-c1nc2cc(Cl)cc(Cl)c2[nH]1` [2-(4,6-dichloro-1H-benzo[d]imidazol-2-yl)phenol (1)], 4.48 µM; for `Oc1cccc(-c2nc3c(Cl)cc(Cl)cc3[nH]2)c1O` [3-(4,6-dichloro-1H-benzo[d]imidazol-2-yl)benzene-1,2-diol (4)], 60.5 µM. For `Oc1cccc(-c2nc3c(Cl)cc(Cl)cc3[nH]2)c1` [3-(4,6-dichloro-1H-benzo[d]imidazol-2-yl)phenol (2)], the IC50 turned out to be 28.4 µM. With `Clc1ccc(-c2nc3c(Cl)cc(Cl)cc3[nH]2)cc1` [4,6-Dichloro-2-(4-chlorophenyl)-1H-benzo[d]imidazole (12)] the figure was 36.1 µM. For `Clc1cc(Cl)c2nc(-c3ccccn3)[nH]c2c1` [4,6-dichloro-2-(pyridin-2-yl)-1H-benzo[d]imidazole (19)] the value was 86.1 µM; for `Oc1ccc(-c2nc3c(Cl)cc(Cl)cc3[nH]2)cc1O` [4-(4,6-dichloro-1H-benzo[d]imidazol-2-yl)benzene-1,2-diol (5)], 46.1 µM. In turn, `Oc1ccc(-c2nc3c(Cl)cc(Cl)cc3[nH]2)c(O)c1` [4-(4,6-dichloro-1H-benzo[d]imidazol-2-yl)benzene-1,3-diol (6)] came in with an IC50 of 14.2 µM. Take `Oc1ccc(-c2nc3c(Cl)cc(Cl)cc3[nH]2)cc1` [4-(4,6-dichloro-1H-benzo[d]imidazol-2-yl)phenol (3)]: 14.2 µM corresponded to half-maximal inhibition (IC50).

`COc1ccc(-c2nc3c(Cl)cc(Cl)cc3[nH]2)cc1O` [5-(4,6-dichloro-1H-benzo[d]imidazol-2-yl)-2-methoxyphenol (9)]: the IC50 was found to be 86.3 µM.
